Source: ChEMBL document CHEMBL5247653, “Discovery of Clinical Candidate ACT-777991, a Potent CXCR3 Antagonist for Antigen-Driven and Inflammatory Pathologies” (J Med Chem, 2023)
Converted amounts (≈) assume the structure as drawn. The source made the active and inactive calls. The calls are words filed in the database; no cut-off is given here.

Tests used:
[1] = Unbound clearance in Beagle dog plasma at 1 mg/kg, iv; type: ADME, organism-based, Canis lupus familiaris; conditions: in vivo
[2] = target: Cytochrome P450 3A4 (Homo sapiens, UniProt P08684); test: Competitive inhibition of CYP3A4 (unknown origin); type: ADME
[3] = Cmax in LPS-induced DBA/1 mouse plasma at 0.006 microg/g, po bid preincubated for 3 days followed by LPS stimulation for 30 mins and measured after 72 hrs by flow cytometry; type: ADME, organism-based; parameters: dose 0.006 µg/g, time 6 day, route po; conditions: 0.006 µg/g
[4] = Lipophilicity, log D of compound; type: physicochemical; conditions: octanol/water
[5] = Metabolic stability in human hepatocyte assessed as M2 metabolite formation at 1 uM and measured upto 15 mins in presence of NADPH regenerating system by LC-MS/MS analysis; type: ADME, cell-based; conditions: hepatocytes, 0.25 h
[6] = Metabolic stability in dog liver microsomes assessed as intrinsic clearance at 1 uM and measured upto 15 mins in presence of NADPH regenerating system by LC-MS/MS analysis; type: ADME, Canis lupus familiaris, Microsome; conditions: read-out: CLH
[7] = Genotoxicity in Salmonella typhimurium TA98 at 5000 ug; type: toxicity; conditions: salmonella enterica subsp. enterica serovar typhimurium; dose 5000 µg
[8] = Genotoxicity in Salmonella typhimurium TA98 at 5000 ug in presence of S9 fraction; type: toxicity, subcellular, Salmonella enterica subsp. enterica serovar Typhimurium; conditions: dose 5000 µg
[9] = In vivo inhibition of hERG in dog assessed as increase in QTc interval at 24 ug/ml, iv; type: toxicity, organism-based, Canis lupus familiaris; conditions: at 24 µg/mL
[10] = Cmax in Cynomolgus monkey at 1.0 mg/kg,iv or 1.25 mg/kg, po; type: ADME, organism-based, Macaca fascicularis; parameters: dose 1 mg/kg, route iv; conditions: in vivo
[11] = Metabolic stability in human hepatocyte assessed as M3 metabolite formation at 1 uM and measured upto 15 mins in presence of NADPH regenerating system by LC-MS/MS analysis; type: ADME, cell-based; conditions: hepatocytes, 0.25 h
[12] = In vivo inhibition of hERG in iv dosed dog assessed as change in PR interval; type: toxicity, organism-based, Canis lupus familiaris
[13] = target: T1, C-X-C chemokine receptor type 3 (Homo sapiens, UniProt P49682); test: Binding affinity to human CXCR3 expressed in CHO-K1 cell membrane assessed as dissociation constant using tritium-labeled ligand by […] assay; type: cell membranes
T1 sequence (P49682 whole entry): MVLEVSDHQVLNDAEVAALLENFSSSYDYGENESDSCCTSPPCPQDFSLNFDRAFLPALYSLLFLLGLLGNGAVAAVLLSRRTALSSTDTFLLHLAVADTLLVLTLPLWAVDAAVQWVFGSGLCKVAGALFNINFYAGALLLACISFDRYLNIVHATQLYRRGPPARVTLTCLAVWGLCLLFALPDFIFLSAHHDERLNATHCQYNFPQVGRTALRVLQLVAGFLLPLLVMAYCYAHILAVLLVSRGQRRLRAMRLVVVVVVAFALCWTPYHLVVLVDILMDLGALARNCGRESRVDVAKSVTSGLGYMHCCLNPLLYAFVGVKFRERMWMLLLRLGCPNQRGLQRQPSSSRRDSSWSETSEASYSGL

[14] = Clearance in Wistar rat at 3 mg/kg,iv or 3 mg/kg, po; type: ADME, organism-based; conditions: in vivo
[15] = target: T2, C-X-C chemokine receptor type 3 (Homo sapiens) (UniProt P49682); test: Binding affinity to CXCR3 (unknown origin) at 10 uM by radioligand binding assay; conditions: filed as antagonist
T2 sequence (whole entry): T1 sequence (P49682 whole entry)

[16] = In vivo inhibition of hERG in iv dosed dog assessed as change in QRS interval; type: toxicity, organism-based, Canis lupus familiaris
[17] = tested on: Mus musculus; test: Antiinflammatory activity against LPS-induced DBA/1 mouse model assessed as reduction in CXCR3+ CD8+ T cells infiltration into BAL at 0.02 microg/g, po preincubated for 3 days followed by LPS stimulation for 30 mins and measured after 3 days by flow cytometry; type: functional, T-cell; parameters: scale not given: the % may be the effect or the level left; conditions: dose 0.02 µg/g, time 6 day
[18] = Cmin in LPS-induced DBA/1 mouse plasma at 0.02 microg/g, po bid preincubated for 3 days followed by LPS stimulation for 30 mins and measured after 72 hrs by flow cytometry; type: ADME, organism-based; conditions: dose 0.02 µg/g, time 3 day, read-out: Cmin
[19] = Protein binding in human plasma assessed as fraction unbound at 1 uM incubated for 6 hrs by rapid equilibrium dialysis based LC-MS/MS analysis; type: ADME, cell-free
[20] = target: T3, C-X-C chemokine receptor type 3 (Mus musculus, UniProt O88410); test: Antagonist activity at mouse CXCR3 expressed in CHO-K1 cells assessed as reduction in CXCL11 induced calcium flux by FLIPR method; type: cell-based
T3 sequence (O88410 whole entry): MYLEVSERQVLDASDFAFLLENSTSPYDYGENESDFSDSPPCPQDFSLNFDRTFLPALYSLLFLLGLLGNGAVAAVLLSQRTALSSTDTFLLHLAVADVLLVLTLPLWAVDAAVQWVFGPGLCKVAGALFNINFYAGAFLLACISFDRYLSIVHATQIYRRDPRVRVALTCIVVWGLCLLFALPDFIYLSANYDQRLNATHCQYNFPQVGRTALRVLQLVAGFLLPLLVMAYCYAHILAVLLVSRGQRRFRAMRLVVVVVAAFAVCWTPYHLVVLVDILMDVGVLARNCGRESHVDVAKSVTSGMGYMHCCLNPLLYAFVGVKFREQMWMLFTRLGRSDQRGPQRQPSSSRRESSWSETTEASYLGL

[21] = Apparent permeability across apical to basolateral side in dog MDCK-II cells; type: ADME, cell-based, Canis lupus familiaris
[22] = Glutathione reactivity assessed as GSH-adduct formation by dansyl-glutathione trapping assay; type: physicochemical
[23] = Half life in Cynomolgus monkey at 1.0 mg/kg,iv or 1.25 mg/kg, po; type: ADME, organism-based, Macaca fascicularis; conditions: in vivo
[24] = Half life in Wistar rat at 3 mg/kg,iv or 3mg/kg, po; type: ADME, organism-based; conditions: in vivo
[25] = Solubility of compound in FeSSIF at 37 degreeC; type: ADME
[26] = target: CYP2D6 (Homo sapiens, UniProt P10635); test: […] recombinant human CYP2D6 mediated drug metabolism in human liver microsomes assessed as intrinsic clearance at 1 uM incubated for 45 mins in presence of NADPH regenerating system by LC-MS/MS analysis; type: ADME, Microsome; conditions: recombinant human CYP2D6, read-out: CLH
[27] = Volume of distribution at steady state in Beagle dog at 2.5 mg/kg,iv or 2.5 mg/kg, po; type: ADME, organism-based, Canis lupus familiaris; conditions: in vivo, read-out: Vdss
[28] = Protein binding in rat plasma assessed as fraction unbound at 20 ug/ml using 14C-labeled ligand by rapid equilibrium dialysis; type: ADME, cell-free; conditions: at 20 µg/mL
[29] = target: T4, C-X-C chemokine receptor type 3 (Mus musculus) (UniProt O88410); test: In vivo antagonist activity at CXCR3 in LPS-induced DBA/1 mouse model assessed as reduction in mouse CXCL10-mediated chemotaxis in CD8+ T cells at 0.006 microg/g, po bid preincubated for 3 days followed by LPS stimulation for 30 mins and measured after 3 days by flow cytometry; type: functional, organism-based; parameters: scale not given: the % may be the effect or the level left; conditions: T-cell, dose 0.006 µg/g, time 6.0 day
T4 sequence (whole entry): T3 sequence (O88410 whole entry)

[30] = Metabolic stability in rat hepatocyte assessed as M2 metabolite formation at 1 uM and measured upto 15 mins in presence of NADPH regenerating system by LC-MS/MS analysis; type: ADME, cell-based; conditions: hepatocytes, 0.25 h
[31] = target: ATP-dependent translocase ABCB1 (Homo sapiens, UniProt P08183); test: Inhibition of human P-gp in dog MDCKII-MDR1 cells; type: ADME, cell-based
Chain of ATP-dependent translocase ABCB1 (P08183 whole entry): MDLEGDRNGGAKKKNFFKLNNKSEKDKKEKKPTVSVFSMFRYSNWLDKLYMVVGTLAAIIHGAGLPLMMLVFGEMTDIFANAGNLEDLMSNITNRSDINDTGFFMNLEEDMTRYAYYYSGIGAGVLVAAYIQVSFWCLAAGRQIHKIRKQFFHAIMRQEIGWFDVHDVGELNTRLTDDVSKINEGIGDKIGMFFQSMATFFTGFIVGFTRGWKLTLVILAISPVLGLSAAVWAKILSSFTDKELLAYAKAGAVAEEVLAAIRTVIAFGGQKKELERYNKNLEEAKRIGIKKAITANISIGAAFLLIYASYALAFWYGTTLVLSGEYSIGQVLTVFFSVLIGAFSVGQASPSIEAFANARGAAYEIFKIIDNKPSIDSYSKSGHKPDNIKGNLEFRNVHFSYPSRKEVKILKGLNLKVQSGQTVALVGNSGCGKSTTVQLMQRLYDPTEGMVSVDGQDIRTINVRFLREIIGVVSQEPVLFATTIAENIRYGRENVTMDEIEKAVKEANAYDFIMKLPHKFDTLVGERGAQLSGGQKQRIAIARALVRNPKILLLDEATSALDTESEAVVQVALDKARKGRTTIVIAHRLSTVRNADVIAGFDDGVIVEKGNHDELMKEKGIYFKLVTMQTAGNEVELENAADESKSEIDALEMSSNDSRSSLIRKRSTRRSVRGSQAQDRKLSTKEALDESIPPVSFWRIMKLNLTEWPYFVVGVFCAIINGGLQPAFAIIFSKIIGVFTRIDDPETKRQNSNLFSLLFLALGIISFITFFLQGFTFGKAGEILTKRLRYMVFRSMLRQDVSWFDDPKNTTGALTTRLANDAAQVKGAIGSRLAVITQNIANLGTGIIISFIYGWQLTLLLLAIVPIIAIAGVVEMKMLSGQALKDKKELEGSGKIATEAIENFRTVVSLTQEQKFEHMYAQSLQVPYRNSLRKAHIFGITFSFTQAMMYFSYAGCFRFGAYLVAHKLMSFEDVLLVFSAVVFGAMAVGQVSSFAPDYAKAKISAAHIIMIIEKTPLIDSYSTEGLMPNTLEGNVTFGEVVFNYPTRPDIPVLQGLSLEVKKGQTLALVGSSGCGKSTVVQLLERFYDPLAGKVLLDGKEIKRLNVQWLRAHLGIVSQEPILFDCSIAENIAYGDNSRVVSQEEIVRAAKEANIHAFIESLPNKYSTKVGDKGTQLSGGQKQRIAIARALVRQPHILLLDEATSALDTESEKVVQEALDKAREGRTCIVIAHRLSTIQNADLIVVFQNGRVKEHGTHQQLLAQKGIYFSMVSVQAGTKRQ

Chain of Cytochrome P450 3A4 (P08684 whole entry): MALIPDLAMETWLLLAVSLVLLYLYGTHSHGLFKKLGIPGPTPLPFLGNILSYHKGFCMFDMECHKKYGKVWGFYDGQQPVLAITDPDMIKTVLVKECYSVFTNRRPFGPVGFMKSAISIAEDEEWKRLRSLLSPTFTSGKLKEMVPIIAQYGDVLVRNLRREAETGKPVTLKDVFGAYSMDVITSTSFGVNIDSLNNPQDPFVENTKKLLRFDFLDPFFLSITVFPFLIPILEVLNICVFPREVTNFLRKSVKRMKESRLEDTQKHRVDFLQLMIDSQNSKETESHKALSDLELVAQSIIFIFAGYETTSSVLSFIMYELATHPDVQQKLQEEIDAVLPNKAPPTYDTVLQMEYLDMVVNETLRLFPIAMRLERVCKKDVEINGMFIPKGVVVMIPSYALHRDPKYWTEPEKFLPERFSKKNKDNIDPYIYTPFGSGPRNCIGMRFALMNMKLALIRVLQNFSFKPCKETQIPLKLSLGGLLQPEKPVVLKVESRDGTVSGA
Chain of CYP2D6 (P10635 whole entry): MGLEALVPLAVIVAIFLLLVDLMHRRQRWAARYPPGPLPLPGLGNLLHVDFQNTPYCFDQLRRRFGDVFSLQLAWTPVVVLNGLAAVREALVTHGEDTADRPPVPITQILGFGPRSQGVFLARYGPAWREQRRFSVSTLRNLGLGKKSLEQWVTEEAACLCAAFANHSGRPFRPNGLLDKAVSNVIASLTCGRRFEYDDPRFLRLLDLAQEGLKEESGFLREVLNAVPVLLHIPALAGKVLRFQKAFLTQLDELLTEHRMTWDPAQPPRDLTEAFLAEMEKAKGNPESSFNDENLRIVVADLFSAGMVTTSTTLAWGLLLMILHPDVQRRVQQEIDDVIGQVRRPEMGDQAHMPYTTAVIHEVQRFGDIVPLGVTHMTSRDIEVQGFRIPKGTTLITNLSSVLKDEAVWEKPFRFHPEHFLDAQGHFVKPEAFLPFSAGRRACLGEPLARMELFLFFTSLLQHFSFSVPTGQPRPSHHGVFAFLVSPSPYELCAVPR

Cc1ncn(CC(=O)N2CCN(c3sc(C(F)(F)F)nc3-c3cnc(C(F)(F)F)nc3)C[C@H]2CCO)n1
CL free [1]: 15 mL/min/kg
IC50 [2]: > 50000 nM
Cmax [3]: 42 ng/mL
logD [4]: 2.3
Stability [5]: Unstable
microsomal CLint at 1 µM [6]: < 10 µL/min/mg
Activity [7]: Non-Toxic
Activity [8]: Non-Toxic
inhibition (INH) [9]: Toxic
Cmax [10]: 735 ng/mL
Stability [11]: Unstable
inhibition (INH) [12]: Non-Toxic
Kd [13]: 4.6 nM
clearance [14]: 9.5 mL/min/kg
Activity [15]: Active
inhibition (INH) [16]: Non-Toxic
Activity [17]: 70%
concentration at 72 h [18]: 99 ng/mL
fraction unbound at 6 h, 1 µM [19]: 0.23
IC50 [20]: 4.4 nM
Papp A→B [21]: 1.5 ×10⁻⁶ cm/s
Activity [22]: Not Active
half-life [23]: 4 h
half-life [24]: 5.5 h
solubility [25]: 1250 µg/mL (≈ 2270 µM)
microsomal CLint at 1 µM [26]: < 0.04 µL/min/mg
Vd [27]: 1.5 L/kg
fraction unbound at 20 ug/ml [28]: 0.12
Activity [29]: 35%
Stability [30]: Unstable
inhibition (INH) [31]: Not Active
